Values of other authors as cited in US20100256576A1, “Disinfectant Compositions, Methods and Systems” (TYCO HEALTHCARE GROUP LP, priority 2009, published 2010).

Conditions: up to 3000 mg infused over 3 hours, daily, humans with hypercalcemia

SMILES: O=C([O-])CN(CCN(CC(=O)[O-])CC(=O)O)CC(=O)O.[Na+].[Na+] [EDTA, Disodium EDTA]
- tolerability of infused dose: well tolerated
